In patent US11406600B2, “Anhydrous dasatinib-containing preparation” (SAWAI PHARMACEUTICAL CO., LTD., priority 2017, dated 2022):

Experiments:
[1] = Color change (ΔE) after light irradiation, spectral color contrast meter; format: physicochemical; details: irradiated with 10000 Lux./hr of light for 5 days; based on color tone immediately after manufacturing; mean of 5 tablets
Procedure: Using a spectral color contrast meter (NIPPON DENSHOKU INDUSTRIES CO., LTD., Model: SE-6000), the color change ΔE value of the preparation irradiated with 10000Lux./hr of light for 5 days was measured based on the color tone of the preparation immediately after manufacturing, and the mean value of the measurement value of 5 tablets was calculated.
(§1) In the anhydrous dasatinib-containing tablet having the film-coating part, the amount of the film-coating part and the percentage of the titanium oxide in the film-coating part were varied, respectively, and the color change (ΔE) and the total related substances (%) of the preparations irradiated with 10000 Lux./hr of light for 5 days were determined, respectively.
For color change, the ΔE value of the amount of color change was measured using a spectral color contrast meter (NIPPON DENSHOKU INDUSTRIES CO., LTD., Model: SE-6000) based on the color tone of the drug product immediately after manufacturing, and the mean value of the measured value of 5 tablets was calculated.

[2] = Total related substances (%) by liquid chromatography after light irradiation; format: physicochemical; details: irradiated with 10000 Lux./hr of light for 5 days; peak area ratio, LC, 230 nm
Procedure: In the description, the purities of the anhydrous dasatinib were evaluated using liquid chromatography as an assessment of the stability. The ratio of the peak area of related substances derived from the anhydrous dasatinib to that of the anhydrous dasatinib was calculated to determine the total related substances (%).
as §1
For the total related substances, the purities of the anhydrous dasatinib were evaluated using liquid chromatography as shown below. The ratio of the peak area of the related substances derived from the anhydrous dasatinib to that of the anhydrous dasatinib was calculated to determine the total related substances (%). Specifically, a column was octadecylsilated silica gels (particle size, 5 μm; column inner diameter, 4.6 mm; column length, 250 mm; GL Sciences), mobile phase A was 0.01 M aqueous potassium dihydrogen phosphate solution, mobile phase B was acetonitrile, and the detector was ultraviolet absorbance spectrophotometer (measured wavelength: 230 nm), respectively. […]

[3] = 1.2 million Lux.·hr total illumination and 200 W·hr/m^2 total near-ultraviolet radiation energy; cited from earlier work

Row | color change ΔE value [1] | total related substances (%) [2] [%] | Compound | stability under light stress testing [3]
1 | 18.56 | 0.51 | Cc1nc(Nc2ncc(C(=O)Nc3c(C)cccc3Cl)s2)cc(N2CCN(CCO)CC2)n1 [Comparative Example 1, anhydrous dasatinib] | –
2 | – | – | Cc1nc(Nc2ncc(C(=O)Nc3c(C)cccc3Cl)s2)cc(N2CCN(CCO)CC2)n1 [dasatinib hydrate] | no changes were observed
